Reference: publication PMC3179684 (Toxicological Sciences, 2011)
Entries after “also recorded” stand apart in the source; their conditions may differ. Like-named read-outs stand apart in the source and are kept apart here.

Legend:
[1] = test system: glutathione S-transferase (GST); assay: GST-mediated EO elimination in rat liver cytosol; assay type: in vitro ADME, Fischer 344 rats; details: rat pooled liver cytosol; taking a Km of 9 mmol/l
[2] = molecular target: T1, epoxide hydrolase (EH) (Rattus norvegicus, UniProt P07687); assay: EO elimination in rat lung microsomes; assay type: in vitro ADME, Fischer 344 rats; details: native pooled rat lung microsomes vs heat-inactivated, 5 mg protein/ml
T1 sequence (P07687 1-455): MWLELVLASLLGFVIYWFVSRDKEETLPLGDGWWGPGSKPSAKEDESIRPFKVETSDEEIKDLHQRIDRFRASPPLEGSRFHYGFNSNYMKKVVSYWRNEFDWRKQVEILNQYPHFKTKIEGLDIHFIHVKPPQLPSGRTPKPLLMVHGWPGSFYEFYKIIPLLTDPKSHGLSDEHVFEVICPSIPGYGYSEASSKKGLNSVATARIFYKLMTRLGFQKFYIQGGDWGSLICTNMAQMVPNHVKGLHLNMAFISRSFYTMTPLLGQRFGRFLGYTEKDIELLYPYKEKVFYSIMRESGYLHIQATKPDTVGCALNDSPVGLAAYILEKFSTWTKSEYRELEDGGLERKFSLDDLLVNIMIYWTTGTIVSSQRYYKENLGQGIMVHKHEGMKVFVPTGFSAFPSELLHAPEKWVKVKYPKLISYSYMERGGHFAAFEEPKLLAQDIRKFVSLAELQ

[3] = test system: glutathione S-transferase (GST); assay: GST-mediated EO elimination in rat lung cytosol; assay type: in vitro ADME, Fischer 344 rats; details: taking a Km of 9 mmol/l
[4] = calculated from the data of ref Brown et al. (1996); cited from earlier work
[5] = molecular target: T2, epoxide hydrolase (EH) (Homo sapiens, UniProt P07099); assay: EO elimination in human liver microsomes; details: pooled native human liver microsomes, best fit (Berkeley Madonna)
T2 sequence (P07099 1-455): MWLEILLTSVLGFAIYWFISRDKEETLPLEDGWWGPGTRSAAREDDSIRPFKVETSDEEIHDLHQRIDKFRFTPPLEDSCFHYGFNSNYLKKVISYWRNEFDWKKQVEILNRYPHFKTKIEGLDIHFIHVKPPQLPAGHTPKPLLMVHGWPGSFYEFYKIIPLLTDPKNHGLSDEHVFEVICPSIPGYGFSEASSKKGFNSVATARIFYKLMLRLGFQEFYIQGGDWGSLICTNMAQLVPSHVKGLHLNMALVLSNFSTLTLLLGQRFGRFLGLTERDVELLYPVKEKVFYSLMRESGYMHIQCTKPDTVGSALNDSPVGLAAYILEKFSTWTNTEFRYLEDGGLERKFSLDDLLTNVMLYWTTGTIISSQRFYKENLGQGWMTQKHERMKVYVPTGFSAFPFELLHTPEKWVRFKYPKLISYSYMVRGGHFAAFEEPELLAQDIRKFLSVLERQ

[6] = rat; ref Dunkelberg, 1982; Garman et al., 1985; Snellings et al., 1984; cited from earlier work
[7] = molecular target: T3, epoxide hydrolase (EH) (Mus musculus, UniProt Q9D379); assay: EO elimination in mouse liver microsomes; assay type: in vitro ADME, B6C3F1 mice; details: native pooled mouse liver microsomes vs heat-inactivated, 5 mg protein/ml
T3 sequence (Q9D379 1-455): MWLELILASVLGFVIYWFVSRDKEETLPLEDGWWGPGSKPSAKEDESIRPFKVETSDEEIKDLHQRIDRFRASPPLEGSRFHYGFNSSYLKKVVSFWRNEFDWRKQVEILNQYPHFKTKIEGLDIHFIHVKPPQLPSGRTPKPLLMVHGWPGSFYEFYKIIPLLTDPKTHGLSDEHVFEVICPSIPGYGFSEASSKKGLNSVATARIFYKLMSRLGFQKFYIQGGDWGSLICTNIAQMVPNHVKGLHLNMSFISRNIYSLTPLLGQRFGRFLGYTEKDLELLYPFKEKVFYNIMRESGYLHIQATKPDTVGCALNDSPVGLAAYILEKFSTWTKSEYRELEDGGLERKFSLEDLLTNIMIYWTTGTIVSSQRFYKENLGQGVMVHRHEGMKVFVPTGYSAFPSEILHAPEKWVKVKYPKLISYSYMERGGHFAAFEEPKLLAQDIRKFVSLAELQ

[8] = test system: glutathione S-transferase (GST); assay: GST-mediated EO elimination in human liver cytosol; assay type: in vitro ADME; details: human pooled liver cytosol; taking a Km of 9 mmol/l
[9] = mouse; ref Dunkelberg, 1981; National Toxicology Program, 1987; cited from earlier work
[10] = test system: glutathione S-transferase (GST); assay: GST-mediated EO elimination in mouse liver cytosol; assay type: in vitro ADME, B6C3F1 mice; details: mouse pooled liver cytosol; taking a Km of 9 mmol/l
[11] = molecular target: T1, epoxide hydrolase (EH); assay: EO elimination in rat liver microsomes; assay type: in vitro ADME, Fischer 344 rats; details: native pooled rat liver microsomes vs heat-inactivated, 5 mg protein/ml
[12] = Nonenzymatic conjugation with GSH; assay type: physicochemical; details: GSH 15 mmol/l, 37°C, pH 7.4
[13] = test system: glutathione S-transferase (GST); assay: GST-mediated EO elimination in mouse lung cytosol; assay type: in vitro ADME, B6C3F1 mice; details: taking a Km of 9 mmol/l
[14] = humans; ref IARC (1994b); cited from earlier work
[15] = molecular target: T3, epoxide hydrolase (EH); assay: EO elimination in mouse lung microsomes; assay type: in vitro ADME, B6C3F1 mice; details: native pooled mouse lung microsomes vs heat-inactivated, 5 mg protein/ml
[16] = test system: CYP450; assay: EO incubation in pooled rat liver microsomes with NADPH-regenerating system; assay type: in vitro ADME, Fischer 344 rats; details: rat liver microsomal incubation with NADPH-regenerating system
[17] = Spontaneous; assay type: physicochemical; details: MgCl2 containing potassium phosphate buffer pH 7.4, 37°C
[18] = test system: GSH levels in the livers; details: Fischer rats exposed for 4 h to 1200 ppm EO; ref McKelvey and Zemaitis (1986); cited from earlier work

For `C1CO1` [EO, ethylene oxide], the “Vmax of GST-mediated GSH conjugation with EO” value (from here on “Vmax … with EO”) [1] was 47.7 nmol/min/mg protein, the “EH-catalyzed EO elimination” value [2] was “no EH-catalyzed EO elimination was found” and the “Vmax … with EO” value [3] was 16.0 nmol/min/mg protein. The “rate constant of the nonenzymatic elimination” value [4] was 0.001 min⁻¹, the “Vmax of EO elimination” value [5] was 14.35 nmol/min/mg protein and the carcinogenicity [6] was “carcinogenic”. For the same molecule, the “EH-catalyzed EO elimination” value [7] was “not detectable; also recorded: no EH-catalyzed EO elimination was found”, the “Vmax … with EO” value [8] was 10.3 nmol/min/mg protein and the carcinogenicity [9] was “carcinogenic”. The “Vmax … with EO” value [10] was 251 nmol/min/mg protein, the “EH-catalyzed EO elimination” value [11] was “not detectable; also recorded: no EH-catalyzed EO elimination was found” and the “mean half-life of nonenzymatic conjugation with GSH” value [12] was 3.7 h. The “Vmax … with EO” value [13] was 56.9 nmol/min/mg protein, the IARC evaluation [14] was “carcinogenic to humans” and the “EH-catalyzed EO elimination” value [15] was “no EH-catalyzed EO elimination was found”. The “CYP-mediated EO elimination” value [16] was “no CYP-mediated EO elimination was detected”, the “mean half-life of spontaneous hydrolysis” value [17] was 12.4 h and the “rate constant of the spontaneous hydrolysis” value ([17]; mean ± SE, n = 36) was 0.00093 ± 7e-05 min⁻¹. The “GSH levels in the livers” value [18] was “less than 20 % of the control value”.
